Test results: ChEMBL document CHEMBL1201862, “PubChem BioAssay data set” (2004)
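96-well plates; 48 h exposure; 5 concentrations. Endpoints by linear interpolation between flanking doses. Not reached: highest tested concentration assigned. Abbreviation: GI50, concentration required for 50% inhibition of growth.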 Active and inactive are the calls of the source. Rule as the data show it: active = GI50 up to about 1.1 µM and inactive = higher.

What was measured:
Test in all cases: inhibition of tumour cell growth, NCI panel, 48 h
COLO 205 = tested on: COLO 205
IGROV-1 = tested on: IGROV-1
SK-MEL-2 = tested on: SK-MEL-2
HOP-92 = tested on: HOP-92
HCC 2998 = tested on: HCC 2998
MOLT-4 = tested on: MOLT-4
SK-OV-3 = tested on: SK-OV-3
SF-295 = tested on: SF-295
OVCAR-3 = tested on: OVCAR-3
OVCAR-4 = tested on: OVCAR-4
NCI-H522 = tested on: NCI-H522
LOX IMVI = tested on: LOX IMVI
KM12 = tested on: KM12
CCRF-CEM = tested on: CCRF-CEM
NCI-H460 = tested on: NCI-H460
RXF 393 = tested on: RXF 393
UACC-62 = tested on: UACC-62
UACC-257 = tested on: UACC-257
SNB-19 = tested on: SNB-19
SNB-75 = tested on: SNB-75

Measured: GI50

Cc1c2ccncc2cc2c1[nH]c1ccccc12
inactive: COLO 205 1.64 µM | IGROV-1 6.22 µM | SK-MEL-2 7.43 µM | HOP-92 5.37 µM | HCC 2998 5.04 µM | MOLT-4 1.98 µM | SK-OV-3 5.65 µM | SF-295 5.02 µM | OVCAR-3 5.6 µM | OVCAR-4 6.12 µM | NCI-H522 3.92 µM | LOX IMVI 2.33 µM | KM12 4.56 µM | CCRF-CEM 3.78 µM | NCI-H460 1.77 µM | RXF 393 2.68 µM | UACC-62 5.11 µM | UACC-257 5.55 µM | SNB-19 5.71 µM | SNB-75 5.26 µM

COC1OC(=O)[C@H]2O[N+]([O-])=C(C)[C@@H]12 (stereo not given in full)
inactive: COLO 205 > 100 µM | IGROV-1 > 100 µM | SK-MEL-2 > 100 µM | HOP-92 > 100 µM | HCC 2998 > 100 µM | MOLT-4 > 100 µM | SK-OV-3 > 100 µM | SF-295 > 100 µM | OVCAR-3 > 100 µM | OVCAR-4 > 100 µM | NCI-H522 > 100 µM | LOX IMVI > 100 µM | KM12 > 100 µM | CCRF-CEM > 100 µM | NCI-H460 > 100 µM | RXF 393 > 100 µM | UACC-62 > 100 µM | UACC-257 > 100 µM | SNB-19 > 100 µM | SNB-75 > 100 µM

FC(F)(F)C(C1=NC(C(F)(F)F)(C(F)(F)F)N=C(N2CCOCC2)O1)C(F)(F)F
inactive: COLO 205 14.3 µM | IGROV-1 19.6 µM | SK-MEL-2 22.2 µM | HOP-92 25.8 µM | HCC 2998 41.5 µM | MOLT-4 28.9 µM | SK-OV-3 31.3 µM | SF-295 16 µM | OVCAR-3 25.5 µM | OVCAR-4 22.9 µM | NCI-H522 20.2 µM | LOX IMVI 17.8 µM | KM12 39.3 µM | CCRF-CEM 4.71 µM | NCI-H460 29 µM | RXF 393 15.7 µM | UACC-62 13.5 µM | UACC-257 20.8 µM | SNB-19 25.9 µM | SNB-75 29.5 µM

NC1CCCCC1.O=P(O)(O)C(CSc1ccccc1)P(=O)(O)O
inactive: COLO 205 > 100 µM | IGROV-1 > 100 µM | SK-MEL-2 > 100 µM | HOP-92 > 100 µM | HCC 2998 > 100 µM | MOLT-4 > 100 µM | SK-OV-3 > 100 µM | SF-295 > 100 µM | OVCAR-3 47.9 µM | OVCAR-4 > 100 µM | NCI-H522 > 100 µM | LOX IMVI > 100 µM | KM12 > 100 µM | CCRF-CEM > 100 µM | NCI-H460 > 100 µM | RXF 393 > 100 µM | UACC-62 > 100 µM | UACC-257 > 100 µM | SNB-19 > 100 µM | SNB-75 > 100 µM

CN(C)c1n/c(=N/c2ccc(/N=c3\nc(N(C)C)ss3)cc2)ss1
inactive: COLO 205 28.2 µM | IGROV-1 27.5 µM | SK-MEL-2 69.5 µM | HOP-92 > 100 µM | HCC 2998 > 83 µM | MOLT-4 8.49 µM | SK-OV-3 > 100 µM | SF-295 39.8 µM | OVCAR-3 28.2 µM | OVCAR-4 20 µM | NCI-H522 11.5 µM | LOX IMVI > 44.8 µM | KM12 47.3 µM | CCRF-CEM 4.99 µM | NCI-H460 30.2 µM | RXF 393 16.5 µM | UACC-62 3.38 µM | UACC-257 27.5 µM | SNB-19 32.4 µM | SNB-75 13.5 µM

COc1ccc(C2COc3cc(O)c(O)cc3C2)cc1 (stereo not given)
inactive: COLO 205 10.6 µM | IGROV-1 16.7 µM | SK-MEL-2 54.6 µM | HOP-92 11.6 µM | HCC 2998 21.4 µM | MOLT-4 6.58 µM | SK-OV-3 86.3 µM | SF-295 37.6 µM | OVCAR-3 11.4 µM | OVCAR-4 12.1 µM | NCI-H522 4.84 µM | LOX IMVI 32.3 µM | KM12 39.7 µM | CCRF-CEM 2.86 µM | NCI-H460 24 µM | RXF 393 6.87 µM | UACC-62 14.1 µM | UACC-257 27.4 µM | SNB-19 24.8 µM | SNB-75 43.8 µM
